In patent publication US20230226065A1, “ANTI-INFLAMMATORY COMPOSITIONS, METHODS AND USES THEREOF” (COMVITA LIMITED, priority 2020, published 2023):

Key:
[1] = test system: COX-2 protein expression in THP-1 cells; test: LPS-induced COX-2 protein expression in THP-1 cells (Western blot); type: cell-based, human
Procedure: THP-1 cells were seeded in 12-well tissue-culture treated plates at a density of 500,000 cells/well in growth media overnight. […] Cells were washed with cold PBS and lysed in RIPA buffer containing protease inhibitors (Sigma P2714) for 15 minutes on ice. Debris was pelleted by centrifugation at 14,000×g for 15 min and lysate supernatants were frozen at −80° C. for later analysis by western blot.
Western blots for semi-quantitative COX-2 (Abcam ab188183) protein expression were conducted on THP-1 monocyte cells lysed with RIPA buffer containing protease inhibitors. A total of 10 μg protein was loaded onto precast 10% acrylamide gels (BioRad, NZ) then separated by electrophoresis at 120 V at room temperature. […] The membranes were then incubated with the primary antibody that correspond to the protein of interest for 1 h. […] Western blot images were captured with an Amersham™ Imager 600 (GE Healthcare, Chicago, Ill., USA) and densitometry measurement of protein bands was analysed with the accompanying image analysis software.
For analysis of Western blots, densitometry measurements from the proteins of interest were normalised to the densitometry of p-actin for each sample. […] The significance level was set at p≤0.05.

THP-1 cells = test: WST-1 cell viability assay, LPS-stimulated THP-1 cells; type: cell-based; conditions: 10 μg/mL dexamethasone; LPS co-stimulation 18 hours
Procedure: Human monocytic THP-1 cells were seeded in 96-well tissue-culture treated plates at a density of 50,000 cells/well in growth media (RPMI media supplemented with 10% fetal bovine serum, 2 mM L-glutamine and penicillin-streptomycin) overnight. […] Control wells were treated with hydrogen peroxide (0, 0.5, 1, and 2 mM) for 1 hour prior to addition of WST-1 reagent (Roche, NZ). WST-1 reagent was added to all wells at the end of the 18 hour incubation period, and absorbance readings were subsequently measured 30 min and 1 h and 10 mins after WST-1 addition. Cell viability expressed the percent change from the LPS-stimulated PBS control.

[2] = test system: MMP-9 secretion in differentiated THP-1 cells; test: LPS induced MMP-9 secretion in differentiated THP-1 cells (ELISA); type: cell-based, human; conditions: 6 μM Azithromycin positive control; LPS 1 μg/mL; P=0.00
Procedure: THP-1 cells (ATCC, ATCTIB202) were grown in RPMI-1640 (Gibco, 11875093)+0.05 mM 2-mercaptoethanol+10% fetal calf serum (FCS)+1% pen-strep. For experiments, the cells were cultured in RPMI-1640 medium with 10% fetal bovine serum (FBS) only.
THP-1 monocyte cells were seeded at a density of 2.5×10^5 cells/ml in 96-well plates and differentiated into macrophages using 10 ng/ml of phorbol 12-myristate 13-acetate (PMA) (Bergin et al) (Sigma, P1585-1MG, Lot #SLBX889, 100% purity) for 72 hours. PMA media was then removed from the differentiated THP-1 cells, the cells were then washed once in RPMI-1640 media and then left to rest for 5 hours.
The differentiated THP-1 cells were stimulated with LPS from E. coli 055:B5 (Sigma, L6529; Lot #037K4068). LPS tested at a concentration of 1 μg/ml (Kong et al). […] After 24 hours, the cell culture media was collected and measured for MMP-9 concentration using MMP-9 ELISA (R&D systems, RDSDY91105 lot #P239459 and DY008 Lot #P239900). […]
In order to better capture the variability, each treatment was done at least in triplicate in each plate (2 plates). Media from the triplicate wells were pooled and analysed in duplicates for the MMP-9 ELISA. […]

recombinant MMP-9 enzyme [3] = molecular target: T1, recombinant MMP-9 enzyme (Homo sapiens, UniProt P14780); test: MMP-9 inhibitor screening assay (fluorometric); type: biochemical; conditions: NNGH inhibitor control
T1 construct: purchased Abcam ab139449
Procedure: The MMP-9 inhibitor screening assay (fluorometric) kits were purchased from Abcam (Melbourne, Australia). The fluorometric kit contains the recombinant MMP-9 enzyme, MMP inhibitor NNGH (N-isobutyl-N-[4-methoxyphenylsulfonyl]glycyl hydroxamic acid), MMP fluorogenic substrate solubilised in DMSO, the fluorometric assay buffer and 96-well clear microplate.
Inhibitory activity on MMP-9 was assessed using the commercial MMP-9 inhibitor screening assay kit. MMP-9 activity was expressed as a change in fluorescence intensity measured using SpectraMax iD3 multi-mode microplate reader (Molecular Devices, San Jose, USA).
The assay employs a FRET-tagged (fluorescence resonance energy transfer) substrate, which can be hydrolysed by MMP-9 at a specific site (Abcam, 2018). The cleavage of the FRET substrate releases the quenched fluorescent Mca (7-methoxycoumarin-4-yl)-acetyl group (Abcam, 2018). The kit employs a quenched fluorogenic substrate Mca-Pro-Leu-Gly-Leu-Dpa-Ala-Arg-NH2, where the Mca fluorescence is quenched by Dpa until cleavage by MMPs. The amount of fluorescent product yielded by MMP-9 can be detected fluorometrically and it is proportional to the enzyme activity. Fluorescence were measured at ex320 nm-em395 nm to minimise fluorescence interference from 3,6,7-trimethyllumazine at ex330 nm-em470 nm. […]

recombinant MMP-9 enzyme [4] = molecular target: T1, recombinant MMP-9 enzyme; test: MMP-9 inhibitor screening assay (colorimetric); type: biochemical; conditions: NNGH at 1.3 μM
Description: The MMP-9 inhibitor screening assay (colorimetric) kits were purchased from Abcam (Melbourne, Australia). The kit contains the recombinant MMP-9 enzyme, MMP inhibitor NNGH, MMP chromogenic substrate, the colorimetric assay buffer and 96-well clear microplate.
The colorimetric kit uses a thiopeptide as a chromogenic substrate (Ac-PLG-[2-mercapto-4-methyl-pentanoyl]-LG-OC2H5), which can be hydrolysed by MMPs to produce a sulfhydryl group. This intermediate product further reacts with DTNB [5,5′-dithiobis(2-nitrobenzoic acid), Ellman's reagent] to form 2-nitro-5-thiobenzoic acid, which can be detected by absorbance at 412 nm. The change in absorbance was measured using the SpectraMax iD3 multi-mode microplate reader (Molecular Devices, San Jose, USA). The assays are performed on a convenient 96-wells microplate with a final reaction volume of 100 μL. Prior to the assay, all testing samples and inhibitor controls were incubated with MMP-9 for 60 min at 37° C. […] The absorbance was measured at 1 min intervals during the first 20 min, then 10 min intervals till the end of assay.
Recombinant MMP-9 and the chromogenic substrate were used as the positive control to represent 100% enzyme activity. […] A range of 3,6,7-trimethyllumazine concentrations were diluted with the colorimetric assay buffer to measure the absorbance of the reaction product.

active MMP-9 = test: Gelatin gel zymography, active MMP-9 band; type: biochemical; conditions: NNGH 2.6 μM in developing buffer; active MMP-9
Procedure: Novex™ 10% Zymogram Plus (Gelatin) Protein Gels (15 wells) were purchased from Thermo Fisher Scientific Inc. (Auckland, New Zealand). All chemicals required for the zymogram analysis were also purchased from Thermo Fisher, these include Novex™ Sharp Pre-stained Protein Standard, Novex Tris-Glycine SDS sample buffer, Novex Tris-Glycine SDS running buffer, Novex Zymogram renaturing buffer and Novex Zymogram developing buffer. […] Gelatin gel zymography was performed as an independent technique to confirm the inhibition of MMP-9 from 3,6,7-trimethyllumazine. This technique uses a non-reducing SDS-PAGE (sodium dodecyl sulfate polyacrylamide gel electrophoresis) gel embedded with gelatin. Proteins are migrated and separated during electrophoresis. The SDS is removed after electrophoresis and the gel is then incubated with essential cofactors required for enzymatic activity. The embedded gelatin can be digested by MMP-9, resulting in clear bands on a dark blue background after staining with Coomassie blue dyes. The gelatinase activity is represented by band densitometry, which can be assessed with image analysis software. […]
After incubation, the gelatin gel was rinsed with water for three times (5 min each) under gentle agitation. […] MMP-9 activities were analysed using densitometry on ImageJ Version 1.52a. […]

T1 sequence (P14780 94-707): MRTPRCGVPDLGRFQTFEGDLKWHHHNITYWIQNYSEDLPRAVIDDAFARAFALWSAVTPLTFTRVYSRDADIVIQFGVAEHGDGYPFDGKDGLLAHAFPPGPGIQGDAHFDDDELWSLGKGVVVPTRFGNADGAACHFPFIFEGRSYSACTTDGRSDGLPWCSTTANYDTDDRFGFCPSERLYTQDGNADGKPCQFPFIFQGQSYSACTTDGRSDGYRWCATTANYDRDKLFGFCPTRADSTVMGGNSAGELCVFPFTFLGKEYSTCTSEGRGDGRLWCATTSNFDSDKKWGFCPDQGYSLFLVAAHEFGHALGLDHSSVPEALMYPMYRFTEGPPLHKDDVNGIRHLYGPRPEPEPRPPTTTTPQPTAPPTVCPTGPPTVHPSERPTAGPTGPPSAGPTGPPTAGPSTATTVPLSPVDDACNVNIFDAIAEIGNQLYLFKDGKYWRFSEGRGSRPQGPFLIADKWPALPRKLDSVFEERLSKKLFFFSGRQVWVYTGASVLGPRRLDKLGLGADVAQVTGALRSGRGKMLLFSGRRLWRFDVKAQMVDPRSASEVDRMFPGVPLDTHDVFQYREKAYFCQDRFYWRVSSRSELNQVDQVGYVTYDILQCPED

Which “COX-2 Relative expression (mean ± SEM)” value ([1]; 10 μg/mL, LPS 24 hours, LPS positive control 1.26 ± 0.11, n=6) does the source give for `C[C@@H]1C[C@H]2[C@@H]3CCC4=CC(=O)C=C[C@]4(C)[C@@]3(F)[C@@H](O)C[C@]2(C)[C@@]1(O)C(=O)CO` [Dexamethasone, reference compound] here?
Its value is 0.85 ± 0.07.

And the “cell death (WST-1 cell viability)” value (THP-1 cells)?
The value was “did not induce cell death”.

For `COc1ccc2c(c1)c(CC(=O)O)c(C)n2C(=O)c1ccc(Cl)cc1` [Indomethacin, reference compound], which “reduction of LPS-induced COX-2 expression” value ([1]; indomethacin 10 μmol/L) is on record?
The value was “did not significantly reduce”.

With `CC[C@H]1OC(=O)[C@H](C)[C@@H](O[C@H]2C[C@@](C)(OC)[C@@H](O)[C@H](C)O2)[C@H](C)[C@@H](O[C@@H]2O[C@H](C)C[C@H](N(C)C)[C@H]2O)[C@](C)(O)C[C@@H](C)CN(C)[C@H](C)[C@@H](O)[C@]1(C)O` [Azithromycin] as the compound, how does the “effect on MMP-9 secretion” value [2] read?
The value was “inhibits MMP-9 secretion”.

With `COc1ccc(S(=O)(=O)N(CC(=O)NO)CC(C)C)cc1` [NNGH, N-isobutyl-N-[4-methoxyphenylsulfonyl]glycyl hydroxamic acid, reference compound] as the compound, how does the “change in fluorescence (MMP-9 activity)” value (recombinant MMP-9 enzyme [3]) read?
Its value is “almost no change in fluorescence”.

What about the “inhibition of MMP-9 activity” value (recombinant MMP-9 enzyme [4]) of the same compound?
The value was “inhibited most of the MMP-9 activity”.

And the “inhibition of gelatinase activity” value (active MMP-9)?
Its value is “completely inhibited”.
